From paper PMC11047580, “Design and Synthesis of Novel Amino and Acetamidoaurones with Antimicrobial Activities” (Antibiotics, 2024)
≈ marks a conversion by molar mass, not a printed value.

Columns and labels:
[1] = tested on: C. albicans DSM10697; test: MIC assay; assay type: cell-based, Candida albicans; conditions: two-fold serial dilutions in liquid media, n = 2–3
[2] = tested on: B. subtilis ATCC6633; test: MIC assay; assay type: cell-based, Bacillus subtilis; conditions: two-fold serial dilutions in liquid media, n = 2–3
[3] = tested on: S. aureus ATCC6538P; test: MIC assay; assay type: cell-based, Staphylococcus aureus; conditions: two-fold serial dilutions in liquid media, n = 2–3
[4] = tested on: E. coli ATCC8739; test: MIC assay; assay type: cell-based, Escherichia coli; conditions: two-fold serial dilutions in liquid media, n = 2–3
[5] = tested on: P. aeruginosa ATCC9027; test: MIC assay; assay type: cell-based, Pseudomonas aeruginosa; conditions: two-fold serial dilutions in liquid media, n = 2–3
[6] = tested on: M. smegmatis ATCC700084; test: MIC assay (REMA); assay type: cell-based, Mycobacterium smegmatis; conditions: n = 2–3
[7] = Staphylococcus aureus, ATCC6538P
[8] = Pseudomonas aeruginosa, ATCC9027
[9] = Mycolicibacterium smegmatis, ATCC700084, REMA microdilution

| SMILES | MIC ([1]; Candida albicans, DSM10697) [µM] | MIC [2] [µM] | MIC [3] [µM] | MIC [4] [µM] | MIC [5] [µM] | MIC ([6]; REMA microdilution) [µM] | MIC [1] [µM] | MIC ([2]; Bacillus subtilis, ATCC6633) [µM] | MIC [3, 7] [µM] | MIC ([4]; Escherichia coli, ATCC8739) [µM] | MIC [5, 8] [µM] | MIC [6, 9] [µM] | melting point [°C] |
| --- | --- | --- | --- | --- | --- | --- | --- | --- | --- | --- | --- | --- | --- |
| C[C@@H]1[C@H](O)[C@@H](C)/C=C/C=C/C=C/C=C/C=C/C=C/C=C/[C@H](O[C@@H]2O[C@H](C)[C@@H](O)[C@H](N)[C@@H]2O)C[C@@H]2O[C@](O)(C[C@@H](O)C[C@@H](O)[C@H](O)CC[C@@H](O)C[C@@H](O)CC(=O)O[C@H]1C)C[C@H](O)[C@H]2C(=O)O [Amphotericin B, reference compound] | 0.62 (≈ 0.573 µg/mL) | – | – | – | – | – | – | – | – | – | – | – | – |
| COc1ccccc1C=C1Oc2ccc(NC(C)=O)cc2C1=O [Compound 4] | – | 50 (≈ 15.5 µg/mL) | 100 (≈ 30.9 µg/mL) | >100 | >100 | >100 | >100 | – | – | – | – | – | – |
| COc1cccc(/C=C2\Oc3ccc(NC(C)=O)cc3C2=O)c1 [Compound 5, (Z)-N-(2-(3-methoxybenzylidene)-3-oxo-2,3-dihydrobenzofuran-5-yl)acetamide] | > 100 | – | – | – | – | – | – | > 100 | 100 (≈ 30.9 µg/mL) | > 100 | > 100 | 100 (≈ 30.9 µg/mL) | 204.2 |
| COc1ccc(/C=C2\Oc3ccc(NC(C)=O)cc3C2=O)cc1 [Compound 6, (Z)-N-(2-(4-methoxybenzylidene)-3-oxo-2,3-dihydrobenzofuran-5-yl)acetamide] | > 100 | – | – | – | – | – | – | > 100 | > 100 | > 100 | > 100 | > 100 | 252 |
| COc1ccccc1/C=C1\Oc2ccc(N)cc2C1=O [Compound 7, (Z)-5-amino-2-(2-methoxybenzylidene)benzofuran-3(2H)-one] | > 100 | – | – | – | – | – | – | > 100 | > 100 | > 100 | > 100 | > 100 | 189.3 |
| COc1cccc(/C=C2\Oc3ccc(N)cc3C2=O)c1 [Compound 8, (Z)-5-amino-2-(3-methoxybenzylidene)benzofuran-3(2H)-one] | > 100 | – | – | – | – | – | – | > 100 | > 100 | > 100 | > 100 | > 100 | – |
| COc1ccc(/C=C2\Oc3ccc(N)cc3C2=O)cc1 [Compound 9, (Z)-5-amino-2-(4-methoxybenzylidene)benzofuran-3(2H)-one] | > 100 | – | – | – | – | – | – | > 100 | > 100 | > 100 | > 100 | > 100 | – |
| CC(=O)Nc1ccc2c(c1)C(=O)/C(=C/c1ccc(OCc3ccccc3)cc1)O2 [Compound 11, (Z)-N-(2-(4-(benzyloxy)benzylidene)-3-oxo-2,3-dihydrobenzofuran-5-yl)acetamide] | > 100 | – | – | – | – | – | – | > 100 | > 100 | > 100 | > 100 | > 100 | 212.8 |
| Nc1ccc2c(c1)C(=O)/C(=C/c1ccc(OCc3ccccc3)cc1)O2 [Compound 13, (Z)-5-amino-2-(4-(benzyloxy)benzylidene)benzofuran-3(2H)-one] | > 100 | – | – | – | – | – | – | 100 (≈ 34.3 µg/mL) | > 100 | > 100 | > 100 | > 100 | 141.6 |
| CC(=O)Nc1ccc2c(c1)C(=O)/C(=C/c1cccc(Oc3ccccc3)c1)O2 [Compound 14, (Z)-N-(3-oxo-2-(3-phenoxybenzylidene)-2,3-dihydrobenzofuran-5-yl)acetamide] | > 100 | – | – | – | – | – | – | > 100 | > 100 | > 100 | > 100 | > 100 | 196.4 |
| Nc1ccc2c(c1)C(=O)/C(=C/c1ccc(Oc3ccccc3)cc1)O2 [Compound 17, (Z)-5-amino-2-(4-phenoxybenzylidene)benzofuran-3(2H)-one] | > 100 | – | – | – | – | – | – | > 100 | > 100 | > 100 | > 100 | > 100 | 170.6 |
| CC(C)Oc1ccc(/C=C2\Oc3ccc(N)cc3C2=O)cc1 [Compound 23, (Z)-5-amino-2-(4-isopropoxybenzylidene)benzofuran-3(2H)-one] | > 100 | – | – | – | – | – | – | > 100 | > 100 | > 100 | > 100 | > 100 | > 350 |
| CC(=O)Nc1ccc2c(c1)C(=O)/C(=C/c1ccccc1F)O2 [Compound 24, (Z)-N-(2-(2-fluorobenzylidene)-3-oxo-2,3-dihydrobenzofuran-5-yl)acetamide] | > 100 | – | – | – | – | – | – | > 100 | > 100 | > 100 | > 100 | > 100 | 226 |
| CC(=O)Nc1ccc2c(c1)C(=O)/C(=C/c1cccc(F)c1)O2 [Compound 25, (Z)-N-(2-(3-fluorobenzylidene)-3-oxo-2,3-dihydrobenzofuran-5-yl)acetamide] | > 100 | – | – | – | – | – | – | 50 (≈ 14.9 µg/mL) | > 100 | > 100 | > 100 | 100 (≈ 29.7 µg/mL) | 243.6 |
| Nc1ccc2c(c1)C(=O)/C(=C/c1ccccc1F)O2 [Compound 26, (Z)-5-amino-2-(2-fluorobenzylidene)benzofuran-3(2H)-one] | > 100 | – | – | – | – | – | – | 50 (≈ 12.8 µg/mL) | > 100 | > 100 | > 100 | > 100 | – |
| Nc1ccc2c(c1)C(=O)/C(=C/c1cccc(F)c1)O2 [Compound 27, (Z)-5-amino-2-(3-fluorobenzylidene)benzofuran-3(2H)-one] | > 100 | – | – | – | – | – | – | > 100 | > 100 | > 100 | > 100 | > 100 | – |
| Nc1ccc2c(c1)C(=O)/C(=C/c1ccc(F)cc1)O2 [Compound 28, (Z)-5-amino-2-(4-fluorobenzylidene)benzofuran-3(2H)-one] | > 100 | – | – | – | – | – | – | > 100 | > 100 | > 100 | > 100 | > 100 | 164.4 |
| CC(=O)Nc1ccc2c(c1)C(=O)/C(=C/c1ccc(C(=O)O)cc1)O2 [Compound 31, (Z)-4-((5-acetamido-3-oxobenzofuran-2(3H)-ylidene)methyl)benzoic acid] | > 100 | – | – | – | – | – | – | 50 (≈ 16.2 µg/mL) | 100 (≈ 32.3 µg/mL) | > 100 | > 100 | 100 (≈ 32.3 µg/mL) | – |
| CC(=O)Nc1ccc2c(c1)C(=O)/C(=C/c1cccc(O)c1)O2 [Compound 32, (Z)-N-(2-(3-hydroxybenzylidene)-3-oxo-2,3-dihydrobenzofuran-5-yl)acetamide] | – | >100 | >100 | >100 | >100 | >100 | >100 | – | – | – | – | – | – |
| Nc1ccc2c(c1)C(=O)/C(=C/c1cccc(O)c1)O2 [Compound 33, (Z)-5-amino-2-(3-hydroxybenzylidene)benzofuran-3(2H)-one] | – | >100 | >100 | >100 | >100 | >100 | >100 | – | – | – | – | – | – |
| CO/N=C1\CN(c2nc3c(cc2F)c(=O)c(C(=O)O)cn3C2CC2)CC1CN (centres unmarked) [Gemifloxacin, reference compound] | – | – | – | – | – | – | – | 0.03 (≈ 0.0117 µg/mL) | 0.06 (≈ 0.0234 µg/mL) | 0.06 (≈ 0.0234 µg/mL) | 0.25 (≈ 0.0973 µg/mL) | 2 (≈ 0.779 µg/mL) | – |
